# Experimental data taken from patent US20240133884A1, “COMPOSITIONS AND METHODS FOR DETECTING TRYPANOSOMA CRUZI INFECTION” (University of Georgia Research Foundation, Inc., priority 2022, published 2024).
# “Also recorded” adds a separate entry of the source.
# Columns and labels:
# T. cruzi isolates = assay: In vitro potency of AN14353 for a range of T. cruzi isolates of different genetic lineages (DTUs); assay type: cell-based, Trypanosoma cruzi
# Experimental: The in vitro anti-T. cruzi amastiogote activity assay was performed and optimized based on the protocol described previously (Canavaci, et al., PLoS neglected tropical diseases 4, e740 (2010)). The change in tdTomato fluorescence intensity was determined as a measurement of growth over 72 hours of culture. For assaying drug effects on extracellular amastigotes, trypomastigotes were collected from infected Vero cell cultures and converted in acidic media as previously described (Tomlinson, et al., Parasitology 110 (Pt 5), 547-554 (1995)). Amastigotes (50,000/well) were incubated with 2-fold serial dilutions of compounds for 48 hours. The ATP production was used as an indication of growth in this case, and was measured by ATPlite Luminescence ATP Detection Assay System (PerkinElmer). Both fluorescence and luminescence were read using a BioTek Synergy Hybrid Multi-Mode reader equipped with the software Gene5 v 2.0 (BioTek). The dose-response curve was generated by […] analysis with GraphPad Prism v9.4.0 (GraphPad Software). IC50 was determined as the drug concentration that was required to inhibit 50% of growth compared to that of parasites with no drug exposure. […]
# [1] = Pharmacokinetics in mice (intravenous and oral); assay type: in vivo; settings: in words
# [2] = tested on: T. cruzi extracellular amastigotes; assay: Extracellular amastigote assay (ATPlite ATP production, 48 hours); assay type: cell-based, Trypanosoma cruzi; settings: in words
# Experimental: The in vitro anti-T. cruzi amastiogote activity assay was performed and optimized based on the protocol described previously (Canavaci, et al., PLoS neglected tropical diseases 4, e740 (2010)). The change in tdTomato fluorescence intensity was determined as a measurement of growth over 72 hours of culture. For assaying drug effects on extracellular amastigotes, trypomastigotes were collected from infected Vero cell cultures and converted in acidic media as previously described (Tomlinson, et al., Parasitology 110 (Pt 5), 547-554 (1995)). Amastigotes (50,000/well) were incubated with 2-fold serial dilutions of compounds for 48 hours. The ATP production was used as an indication of growth in this case, and was measured by ATPlite Luminescence ATP Detection Assay System (PerkinElmer). Both fluorescence and luminescence were read using a BioTek Synergy Hybrid Multi-Mode reader equipped with the software Gene5 v 2.0 (BioTek). The dose-response curve was generated by […] analysis with GraphPad Prism v9.4.0 (GraphPad Software). IC50 was determined as the drug concentration that was required to inhibit 50% of growth compared to that of parasites with no drug exposure.
# T. cruzi = tested on: T. cruzi
# Experimental: A total of 22 rhesus macaques that had been confirmed to be serologically- and PCR-positive for T. cruzi were utilized in these studies. Using 19 animals in the treatment group provided 85% power of detecting 100% efficacy. The 19 animals were treated with a 30 mg/kg dose of AN15368 delivered in food treats once a day for 60 days. The remaining three animals on the study were maintained as untreated control animals and received food treats but were not dosed with AN15368.
# The selected dose of 30 mg/kg in NHP was determined based upon the following rationale. […] Under light-anesthesia/sedation, peripheral blood samples were collected from each animal prior to treatment and at 7 time points following. Blood analysis (CBC and serum chemistry assays) and physical exams to evaluate the health of the study animals were performed on each animal prior to the beginning of the study and also at three time points during the treatment protocol.
# Blood samples from each macaque were collected at various time points and processed for quantification of T. cruzi DNA by real-time qPCR. Between 8-ml of whole blood collected in EDTA anticoagulant tubes was subjected to DNA extraction using the Omega E.Z.N.A. Blood DNA Maxi Kit (Omega Bio-Tek), following the manufacturer's instructions for up to 10 ml whole blood and using a total of 650 μl of elution buffer. Each round of extractions included a negative (no-template) control comprised of 10 ml PBS. The concentration of DNA in the eluted solution was quantified after each extraction using an Epoch microplate spectrophotometer (BioTek).
# DNA from each sample was then subjected to a series of two qPCR assays for detection of T. cruzi satellite DNA. […] Positive (DNA extracted from T. cruzi Sylvio X10 clone 4, American Type Culture Collection, ATCC #50800, known concentration 1.7×10^−3 parasite equivalents) and negative (water) controls were included in each PCR plate for both assays. C1000 Touch Bio-Rad CFX96 real-time PCR detection system was used for both assays under the following cycling conditions: (i) initial denaturation, 95°, 3 min; (ii) denaturation, 95° C., 15 s; (iii) annealing, 58° C., 1 min; (iv)×50 cycles. FAM and VIC channels were selected for each read.
# Frozen tissues were screened for T. cruzi DNA using 8 mm biopsies (Sklar instruments #96-1130), collecting 3 to 10 individual ˜100 μl tissue punches for each tissue type and one of more pooled sample consisting of five punches from different areas of the tissue, totaling ˜500 μl per pool. The tissues sampled included liver, heart, fat, esophagus, quadricep, bicep, large intestine, and brain, as well as tongue and spleen in a few instances. Two individual and one pooled sample of tissues from an uninfected macaque was collected for each sampling batch. DNA from macaque tissue was extracted and analyzed as previously described (Bustamante, et al., Sci Transl Med 12 (2020)) with the exceptions that the purification was scaled up to accommodate the larger amount of tissue in the pooled samples and the range for the standards was 2.6×10^2-2.6×10^−3 parasite equivalents using the kDNA minicircle S35 and S36 primers.
# [3] = macaques, 30 mg/kg once a day for 60 days, post-treatment time points, 30 mg/kg
structure (smiles),measurement,setting,value
Cc1c(C(=O)N[C@H](C(=O)OCc2ccc(F)c(F)c2)C(C)C)ccc2c1B(O)OC2 [AN14353],in vitro potency for a range of T. cruzi isolates,T. cruzi isolates; in words,high in vitro potency
same,IC50,"T. cruzi isolates; strain 20290, DTU TcI",3 nM
same,IC90,"T. cruzi isolates; strain 20290, DTU TcI",5 nM
same,IC50,"T. cruzi isolates; strain 20392, DTU TcIV",5 nM
same,IC90,"T. cruzi isolates; strain 20392, DTU TcIV",10 nM
same,IC50,"T. cruzi isolates; strain ARC0704, DTU TcI",3 nM
same,IC90,"T. cruzi isolates; strain ARC0704, DTU TcI",7 nM
same,IC50,"T. cruzi isolates; strain CL, DTU TcVI",6 nM
same,IC90,"T. cruzi isolates; strain CL, DTU TcVI",18 nM
same,IC50,"T. cruzi isolates; strain Colombiana, DTU TcI",7 nM
same,IC90,"T. cruzi isolates; strain Colombiana, DTU TcI",10 nM
same,IC50,"T. cruzi isolates; strain M5631, DTU TcIII",1 nM
same,IC90,"T. cruzi isolates; strain M5631, DTU TcIII",3 nM
same,IC50,"T. cruzi isolates; strain Montalvania, DTU TcI",1 nM
same,IC90,"T. cruzi isolates; strain Montalvania, DTU TcI",2 nM
same,IC50,"T. cruzi isolates; strain Tul8, DTU TcII",1 nM
same,IC90,"T. cruzi isolates; strain Tul8, DTU TcII",2 nM
same,absorption (dose proportionality of exposure in vivo),[1],solubility-limited absorption
same,sensitivity of extracellular amastigotes,[2],high sensitivity
Cc1c(C(=O)N[C@H](C(=O)OCC2CCOCC2)C(C)C)ccc2c1B(O)OC2 [AN15368],T. cruzi DNA by PCR in post-necropsy tissues,"T. cruzi; 9 treated macaques, 84-99 sample sites/animal",negative
same,overall safety / toxicity,T. cruzi; 60 day course of treatment in NHPs,no overt safety or reproductive health concerns; also recorded: no overt toxicity
same,adverse events,T. cruzi; in vivo,No adverse events
same,"mean ALT and ALP, levels of lymphocytes and monocytes in blood",T. cruzi; in vivo,mildly elevated
same,cure of chronically infected rhesus macaques,T. cruzi; in words (FIGS. 4A-4K),uniformly cures chronically infected rhesus macaques
same,culture of parasites from blood (hemoculture),T. cruzi; [3],remained negative
same,parasite DNA in blood (PCR),T. cruzi; [3],remained negative
same,efficacy / cure,"T. cruzi; naturally infected NHPs, 30 mg/kg, 60 days",100%
